The test system of the assay is MCF-7 tumour cells. The assay is classed as cell-based, human. As to conditions: MCF-7, 50 nM, 48 h exposure; cells larger in size, characteristic of G2-M arrest.

The source of these data is article PMC3685178 (Chemical communications (Cambridge, England), 2013).

For the compound `CC(=O)O[C@H]1C(=O)[C@@]2(C)[C@H]([C@H](OC(=O)c3ccccc3)[C@]3(O)C[C@H](OC(=O)[C@H](O)[C@@H](NC(=O)c4ccccc4)c4ccccc4)C(C)=C1C3(C)C)[C@]1(OC(C)=O)CO[C@@H]1C[C@@H]2O` [PTX, paclitaxel], the “cell populations in live/dead assay” value is listed as “significantly reduced”.
